Laboratory results published in article PMC7129073 (Clinical Microbiology and Infection, 2015).
≈ marks a conversion by molar mass, not a printed value. Like-named read-outs stand apart in the source and are kept apart here.

What was measured:
S. maltophilia = experiment: Susceptibility of respiratory isolates of cancer patients; format: cell-based, Stenotrophomonas maltophilia; conditions: 40 patients
[1] = test system: Stenotrophomonas maltophilia; experiment: E-test, sputum isolates of children with cystic fibrosis; format: cell-based; conditions: 2000–2004
Acinetobacter = experiment: Disk diffusion; format: cell-based; conditions: 37 isolates selected as resistant to beta-lactams
S. aureus 10 = experiment: in vitro dynamic model, enrichment of resistant mutants; format: cell-based
[2] = test system: viridans group streptococci (VgS) and Streptococcus bovis; experiment: Broth microdilution and disk diffusion; format: cell-based; conditions: nine species
MRSA [3] = experiment: Agar dilution MIC; format: cell-based, Staphylococcus aureus
CA-MRSA = experiment: MIC, MBC; format: cell-based, Staphylococcus aureus; conditions: time kill, two strains
[4] = test system: agr+ group II S. aureus (RN6607); experiment: in vitro pharmacodynamic model, MIC by E-test and microdilution; format: cell-based; conditions: Staphylococcus aureus, 72 h, read-out: post-exposure MIC
MDR-MRSA = experiment: MIC, MBC; format: cell-based, Staphylococcus aureus; conditions: time kill, two strains
[5] = test system: Staphylococci epidermidis; experiment: E-test, classical method and macromethod; format: cell-based, Staphylococcus epidermidis; conditions: four strains: 8, 8, 12, 12; BHI agar, 2.0 McFarland, 48 h
E. faecium = experiment: E-test susceptibility; format: cell-based, Enterococcus faecium
[6] = test system: glycopeptide intermediate Staphylococcus species (GISS); experiment: VITEK II, screening plate and E test, blood isolates; format: cell-based, coagulase-negative Staphylococci; conditions: for MIC: Staphylococcus
enterococci = experiment: Disk diffusion and E-test, faecal isolates of cancer patients; format: cell-based, Enterococcus; conditions: 38 strains
S. pneumoniae [7] = format: cell-based, Streptococcus pneumoniae
MRSA [8] = experiment: Disk diffusion; format: cell-based, Staphylococcus aureus; conditions: 200 isolates
MSSA = experiment: Agar dilution MIC; format: cell-based, Staphylococcus aureus
[9] = test system: agr− group II S. aureus (RN9120); experiment: in vitro pharmacodynamic model, MIC by E-test and microdilution; format: cell-based; conditions: Staphylococcus aureus, read-out: post-exposure MIC
[10] = test system: Staphylococcus haemolyticus; experiment: E-test, classical method and macromethod; format: cell-based
[11] = test system: viridans group streptococci (VGS); experiment: MIC; format: cell-based
H.influenzae [12] = experiment: PROTEKT Italy, NCCLS microdilution; format: cell-based, Haemophilus influenzae
E. coli = experiment: Disk diffusion, urine isolates of BPH patients; conditions: strains isolated after operative intervention
H.influenzae [13] = experiment: Broth microdilution; format: cell-based, Haemophilus influenzae
[14] = test system: Salmonella serotype Enteritidis; experiment: Disk diffusion, food isolates Spain; format: cell-based; conditions: n = 96
[15] = test system: Salmonella, other 49 serotypes; experiment: Disk diffusion, food isolates Spain; format: cell-based; conditions: n = 115
Salmonella spp. = experiment: Agar dilution susceptibility, gastroenteritis isolates Cuba; format: cell-based; conditions: 34 strains, 2002
H. influenzae [16] = format: cell-based, Haemophilus influenzae
Escherichia coli O157:H7 = experiment: Kirby-Bauer susceptibility; format: cell-based; conditions: 30 strains, 1990–2003
[17] = test system: Pseudomonas putida clinical isolates; experiment: Agar dilution MIC; format: cell-based
Staphylococcus aureus = experiment: Susceptibility testing; format: cell-based; conditions: conjunctival isolates 2000–2004
H. influenzae [18] = experiment: MIC of invasive strains, Saint George Hospital 2001–2004; format: cell-based, Haemophilus influenzae; conditions: n = 129
[19] = test system: Staphylococcus coagulase negative (CNS); experiment: Susceptibility testing; format: cell-based; conditions: conjunctival isolates 2000–2004
S. pneumoniae [20] = experiment: Broth microdilution; format: cell-based, Streptococcus pneumoniae
C. jejuni ATCC 33560 = experiment: VetMIC broth microdilution, QC strain; format: cell-based; conditions: Campylobacter jejuni, ATCC33560, read-out: QC limits (MIC)
Escherichia coli = experiment: Vitek 2 susceptibility, urine isolates of children; format: cell-based
Moraxella spp. = experiment: Disk diffusion; format: cell-based; conditions: 35 isolates
[21] = test system: Salmonella serotype Typhimurium; experiment: Disk diffusion, food isolates Spain; format: cell-based; conditions: n = 53
[22] = test system: intestinal Escherichia coli; experiment: ampicillin resistance of intestinal isolates during treatment; parameters: species or system beagles; conditions: dog, in vivo
E. faecalis [23] = experiment: Italian survey of severe infections 2003, MIC; format: cell-based, Enterococcus faecalis
Haemophilus influenzae = experiment: Susceptibility testing; format: cell-based; conditions: conjunctival isolates 2000–2004
PRSP = experiment: Broth microdilution; format: cell-based, Streptococcus pneumoniae
E. faecalis [24] = experiment: E-test susceptibility; format: cell-based, Enterococcus faecalis
H. influenzae [25] = experiment: Broth microdilution; format: cell-based, Haemophilus influenzae; conditions: 267 isolates
Shigella spp. = experiment: Disk diffusion, stool isolates Tehran; format: cell-based; conditions: 96 isolates
H. influenzae [26] = experiment: Disk diffusion; format: cell-based, Haemophilus influenzae; conditions: 237 isolates
M. catarrhalis = experiment: PROTEKT Italy, NCCLS microdilution; format: cell-based, Moraxella catarrhalis
ERSP = experiment: Broth microdilution; format: cell-based, Streptococcus pneumoniae; conditions: Streptococcus pneumoniae
H. influenzae [27] = experiment: Disk diffusion, sputum isolates Athens 2001–2004; format: cell-based, Haemophilus influenzae
[28] = test system: foreign body infection Staphylococcus epidermidis strains; experiment: NCCLS disk diffusion; format: cell-based; conditions: 86 strains
S. aureus [29] = experiment: susceptibility of bloodstream isolates; format: cell-based
S. aureus [30] = experiment: E-test susceptibility; format: cell-based, Staphylococcus aureus
[31] = test system: Streptococcus pyogenes (SPY); experiment: MIC; format: cell-based; conditions: 2522 isolates
Nocardia spp. = experiment: E-test on Mueller Hinton agar, 81 clinical isolates; format: cell-based; conditions: Nocardia
[32] = test system: Streptococcus pneumoniae (SPN); experiment: MIC; format: cell-based; conditions: 8378 isolates
[33] = Mediterranean spotted fever, randomised therapeutic study; format: in vivo, human
H. influenzae (HI) = experiment: SENTRY Brazil, NCCLS broth microdilution; format: cell-based, Haemophilus influenzae
[34] = test system: C. pneumoniae target genes (LcrD, YscL, YscN, IncA, IncC, TyrB, GlyA); experiment: Chlamydial gene expression; format: cell-based, Chlamydia pneumoniae; conditions: moxifloxacin 3.1 μg/ml, clarithromycin 2 μg/ml; peaking at 120 h
[35] = test system: Moraxella catarrhalis (MC); experiment: MIC; format: cell-based; conditions: 2497 isolates
[36] = NCCLS breakpoints (Amox/Clav 2/1 mcg/mL)

ticarcillin/clavulanic acid
Susceptible isolates (S. maltophilia): 65% | sensitivity [1]: 59.3% | resistant isolates (Acinetobacter): 32.4%

CN[C@H](CC(C)C)C(=O)N[C@H]1C(=O)N[C@@H](CC(N)=O)C(=O)N[C@H]2C(=O)N[C@H]3C(=O)N[C@H](C(=O)N[C@H](C(=O)O)c4cc(O)cc(O)c4-c4cc3ccc4O)[C@H](O)c3ccc(c(Cl)c3)Oc3cc2cc(c3O[C@@H]2O[C@H](CO)[C@@H](O)[C@H](O)[C@H]2O[C@H]2C[C@](C)(N)[C@H](O)[C@H](C)O2)Oc2ccc(cc2Cl)[C@H]1O [vancomycin]
AUC/MIC predicted to protect from selection of resistant mutants (S. aureus 10): 256 h | AUC/MIC at which resistant mutants were selected (S. aureus 10; five-day treatment): 32 to 128 h | % S, range between species [2]: 100.0% | MIC50 (MRSA [3]; Staphylococcus aureus, MRSA): < 1 µg/mL | MIC90 (MRSA [3]; Staphylococcus aureus, MRSA): < 1 µg/mL | MIC range (MRSA [3]; n = 50): 1 µg/mL (≈ 0.69 µM) | Δ Log10 CFU/ml (CA-MRSA): −3.78 Log10 CFU/ml | MIC [4]: ≤ 2 µg/mL | Δ Log10 CFU/ml (MDR-MRSA): −3.97 Log10 CFU/ml | MIC, macromethod of E-test [5]: 12 µg/mL | Susceptibility (E. faecium; ICU): 93% | Susceptibility (E. faecium; non-ICU): 98% | % isolates resistant (VRE) (E. faecium; total): 4% | MIC ([6]; read-out: MIC of intermediate sensitive strains): 8 to 12 µg/mL | MIC ([6]; read-out: MIC of resistant strain): 32 µg/mL | sensitivity of all isolated strains (enterococci): All the isolated strains were sensitive | resistant (S. pneumoniae [7]): 0% | sensitivity (MRSA [8]): All isolates were sensitive | MIC50 (MSSA; Staphylococcus aureus, MSSA): < 0.5 µg/mL | MIC90 (MSSA; Staphylococcus aureus, MSSA): < 1 µg/mL | MIC range (MSSA; n = 200): 0.5 to 1 µg/mL (≈ 0.345 to 0.69 µM) | MIC [9]: 6 µg/mL (≈ 4.14 µM) | MIC ([10]; read-out: MIC, classical E-test): 3 µg/mL (≈ 2.07 µM) | MIC ([10]; read-out: MIC, macromethod of E-test): 32 µg/mL (≈ 22.1 µM) | MIC50 [11]: 0.5 µg/mL (≈ 0.345 µM) | MIC90 [11]: 1 µg/mL (≈ 0.69 µM) | tolerant isolates ([11]; 83 isolates, tolerance to VA and TP): 77.6% | susceptibility of all isolates ([11]; NCCLS): All isolates were susceptible

CC1(C)S[C@@H]2[C@H](NC(=O)[C@H](N)c3ccccc3)C(=O)N2[C@H]1C(=O)O [ampicillin]
resistance (H.influenzae [12]; year 1): 26.5% | resistance (H.influenzae [12]; year 2): 20.6% | resistance (E. coli): 93.1% | MIC90 (H.influenzae [13]; Haemophilus influenzae): > 16 µg/mL | %Sus (H.influenzae [13]; NCCLS): 74.6% | resistance rate (NCCLS M100-S13) [14]: 8% | resistance rate (NCCLS M100-S13) [15]: 14% | resistance (Salmonella spp.): 44% | resistant (H. influenzae [16]): 4.7% | resistant strains (Escherichia coli O157:H7): 13.3% | MIC [17]: > 128 µg/mL | resistant isolates (Staphylococcus aureus): 66.6% | resistant isolates (H. influenzae [18]): 60% | resistant strains (enterococci; gentamycin: high level): 50% | resistant isolates [19]: 79.5% | %Sus (S. pneumoniae [20]; [36]): 0.0% | MIC90 (S. pneumoniae [20]; Streptococcus pneumoniae): 4 µg/mL (≈ 11.4 µM) | MIC (C. jejuni ATCC 33560): 2 to 8 µg/mL (≈ 5.72 to 22.9 µM) | susceptibility rate (Escherichia coli; paediatric surgical unit (PSU)): 15% | susceptibility rate (Escherichia coli; paediatric units (PU)): 54% | Susceptible isolates (Moraxella spp.): 49% | resistant isolates (Moraxella spp.): 51% | resistance rate (NCCLS M100-S13) [21]: 62% | proportion of ampicillin-resistant isolates during treatment [22]: 98% | resistance (E. faecalis [23]): 0.4% | resistant isolates (Haemophilus influenzae): 9.5% | %Sus (PRSP; [36]): 0.0% | MIC90 (PRSP; Streptococcus pneumoniae, PRSP): 8 µg/mL (≈ 22.9 µM) | Susceptibility (E. faecalis [24]; ICU, SRGA breakpoints, tigecycline tentative ≤2 μg/ml): 99/99% | Susceptibility (E. faecalis [24]; non-ICU): 99/99% | resistant (H. influenzae [25]): 5.2% | resistance (Shigella spp.): 100% | Susceptible isolates (H. influenzae [26]): 92% | susceptibility rate (M. catarrhalis; year 1): 22.7% | susceptibility rate (M. catarrhalis; year 2): 18.9% | MIC90 (ERSP): 8 µg/mL (≈ 22.9 µM) | resistance rate (H. influenzae [27]; 2001–2002): 10.9% | resistance rate (H. influenzae [27]; 2003–2004): 23.1%

Cc1onc(-c2ccccc2)c1C(=O)N[C@@H]1C(=O)N2[C@@H]1SC(C)(C)[C@@H]2C(=O)O [oxacillin]
% resistant [28]: More than 30% | resistance (S. aureus [29]): 43% | sensitive strains ([6]; six out of 73): 8,2% | Susceptibility (S. aureus [30]; ICU, SRGA breakpoints, tigecycline tentative S ≤2 μg/ml): 97% | Susceptibility (S. aureus [30]; non-ICU): 98% | % isolates resistant (S. aureus [30]; total): 2%

CC[C@H]1OC(=O)[C@H](C)[C@@H](O[C@H]2C[C@@](C)(OC)[C@@H](O)[C@H](C)O2)[C@H](C)[C@@H](O[C@@H]2O[C@H](C)C[C@H](N(C)C)[C@H]2O)[C@](C)(OC)C[C@@H](C)C(=O)[C@H](C)[C@@H](O)[C@]1(C)O [clarithromycin]
resistance (H.influenzae [12]; year 1): 36.9% | resistance (H.influenzae [12]; year 2): 25.7% | MIC90 [31]: 0.12 ig/ml | MIC50 (Nocardia spp.): 8 µg/mL (≈ 10.7 µM) | MIC90 (Nocardia spp.): 96 µg/mL (≈ 128 µM) | MIC90 [32]: 0.5 ig/ml | adverse reactions or relapses ([33]; either group): no adverse reactions | time for disappearance of the fever after treatment ([33]; group A n=14, group B n=20): 2.57 ± 1.7 days | time to disappearance of symptoms ([33]; group A n=14, group B n=20): 4.35 ± 2.5 days | % S (H. influenzae (HI); 1998): 90% | % S (H. influenzae (HI); 1999): 100% | % S (H. influenzae (HI); 2000): 92% | % S (H. influenzae (HI); 2001): 91% | % S (H. influenzae (HI); 2002): 90% | % S (H. influenzae (HI); 2003): 94% | upregulation of mRNA of all target genes [34]: less prominent | MIC90 [35]: 0.5 ig/ml
